Legend:
[1] = test system: phospho-ERK1/2; test: Immunoblotting of phospho-ERK1/2 relative to total ERK1/2 in HT29; assay type: cell-based
Method: To determine if SC-1 reached the same target in the treated colon tumor lines, changes in abundance of phospho-ERK 1/2 (p-ERK) and total ERK1/2 protein were evaluated by immunoblotting at time points similar to those previously studied (Figure 3A). In the HT29 treated tumor line, phospho-ERK 1/2 protein levels (relative to total ERK1/2 protein levels) were decreased in 5 min (67±0.06% of control value), reached a trough at 1 hr (46±0.06% of control), and remained decreased during the remainder of the time course (4 hrs, 68±0.10% of control value). Thus, it is likely SC-1 is reaching its cognate molecular target in the HT29 tumor line.
Standard protein electrophoretic techniques were followed using previously published protocols. For these studies, the colon lines were cultured for 5 days with and without treatments, harvested with trypsin (0.25% trypsin 0.5 mM EDTA, Invitrogen), counted and lysed with a whole cell lysis buffer (10 mM Tris, 1.0 mM EDTA, 50 mM NaCl, 0.5% deoxycholate, 0.5% NP-40, 0.5% SDS, 1.0 mM PMSF, and aprotonin and a cocktail of phosphatase and protease inhibitors). The whole cell lysate was heated to 100°C for 10 min and then fractionated (1000 g, 10 min, 4°C). Protein concentrations were measured with the Pierce BCA Protein Assay. Twenty to 40 µg of protein lysate per lane were loaded onto 10% SDS polyacrylamide gels (Ready-Gels, Biorad) with Laemmli buffer. For immunoblotting, the primary antibodies were diluted in Tween/Tris wash buffer (0.1 mM Tris-HCl pH 7.5, 2.5% Tween-20, 150 mM NaCl) and 5% BSA or nonfat dry milk and incubated overnight at 4°C. Visualization of specific bands was accomplished with an alkaline phosphatase-labeled secondary anti-immunoglobulin antibody and the ECF Chemifluorescent reagent (GE Amersham). Pixel intensity of the imaged bands was measured using STORM (GE Amersham) and Image Quant Software. Normalization for loading was accomplished by reprobing with an anti-actin antibody, quantification of pixel intensity and data normalization.

[2] = test system: HCT-15; test: Limiting dilution tumorigenicity, s.c. xenograft without protein support; assay type: in vivo, NOD.SCID mice; conditions: HCT-15 treated 5 days with 0.1 µM SC-1
Method: (§1) Five day exposures were conducted.
(§2) Six week old female NOD.SCID mice were randomly assigned to each of 20 treatment arms (n = 5/group). Treated and control colon tumor lines were enzymatically harvested and counted prior to dilution in RPMI 1640 (at 10, 100, 1,000, 10,000 cells/inoculum) for subcutaneous injection into the axillary region using a volume of […]. Positive control groups were established such that tumor formation occurred in all mice in approximately one week thus confirming that all tumor lines studied were tumorigenic. Cell inocula for the positive control groups ranged from 1×10^6 to 2.5×10^6. Cell viability of the cell stocks was assessed by trypan blue exclusion prior to dilution for injection and was routinely found to be >95%. Tumor formation was monitored weekly using caliper measurements and the tumor mass was calculated as weight in mg = 1/2×(tumor length)×(tumor width)^2. All experiments were terminated at 120 days or when tumor weight exceeded 2000 mg for any individual mouse. In selected studies, tumor cells were resuspended in Matrigel (50% concentration, BD Biosciences) prior to injection.

[3] = test system: KM12; test: as above; assay type: in vivo, NOD.SCID mice; conditions: KM12 treated 5 days with 0.1 µM SC-1
Method: as §1, §2

[4] = test system: HCT-116; test: Cell cycle analysis; assay type: cell-based; conditions: harvested day 5
Method: Approximately 5×10^6 cells were washed with PBS, resuspended in 5 ml of 4°C 70% ethyl alcohol (ETOH) and then incubated at 4°C for 30 min. The sample was washed again before the addition of 0.5 ml PBS containing 0.2 mg/ml of RNAse A. The sample was then incubated at 37°C for 15 minutes. Next, 0.5 ml propidium iodide (0.05 mg/ml in PBS) was added and incubated at 4°C in the dark for 15 min. The sample was then analyzed on the FACScan (Becton Dickinson, San Jose, CA) flow cytometer. Modfit software evaluated DNA content with an automatic module to determine the fraction of cells in the cell cycle compartments.

[5] = test system: HT29; test: Cell growth after five day exposure; assay type: cell-based; conditions: 0.1 µM added day 1, harvested 5 days later
Method: as §1

[6] = test system: HCT-116; test: Cell growth after five day exposure; assay type: cell-based; conditions: 0.1 µM added day 1, harvested 5 days later
Method: as §1

[7] = test system: COLO 205; test: Cell growth after five day exposure; assay type: cell-based; conditions: 0.1 µM added day 1, harvested 5 days later
Method: as §1

[8] = test system: HCT-15; test: Cell growth after five day exposure; assay type: cell-based; conditions: 0.1 µM added day 1, harvested 5 days later
Method: as §1

[9] = test system: HCC-2998; test: Cell growth after five day exposure; assay type: cell-based; conditions: 0.1 µM added day 1, harvested 5 days later
Method: as §1

[10] = test system: KM12; test: Cell growth after five day exposure; assay type: cell-based; conditions: 0.1 µM added day 1, harvested 5 days later
Method: as §1

[11] = test system: SW-620; test: Cell growth after five day exposure; assay type: cell-based; conditions: 0.1 µM added day 1, harvested 5 days later
Method: as §1

Cc1cc(Nc2ncc3c(n2)N(C)C(=O)N(c2cc(NC(=O)c4cccc(C(F)(F)F)c4)ccc2C)C3)n(C)n1 [SC-1]
phospho-ERK 1/2 protein levels relative to total ERK1/2 ([1]; 0.1 µM SC-1, 5 min): 67±0.06 % of control | phospho-ERK 1/2 protein levels relative to total ERK1/2 ([1]; 0.1 µM SC-1, 30 min): 56±0.06 % of control | phospho-ERK 1/2 protein levels relative to total ERK1/2 ([1]; 0.1 µM SC-1, 1 hr): 46±0.06 % of control | phospho-ERK 1/2 protein levels relative to total ERK1/2 ([1]; 0.1 µM SC-1, 4 hrs): 68±0.10 % of control | Tumor take rate ([2]; 100 cells inoculated s.c.): 0/5 | Tumor take rate ([2]; 1000 cells inoculated s.c.): 0/5 | Tumor take rate ([2]; 10000 cells inoculated s.c.): 0/5 | Tumor take rate ([3]; 100 cells inoculated s.c.): 0/5 | Tumor take rate ([3]; 1000 cells inoculated s.c.): 0/5 | Tumor take rate ([3]; 10000 cells inoculated s.c.): 1/5 | Distribution of cell population across the cell cycle vs control [4]: no difference | Fold Change from Initial Inocula [5]: 17.5 | Fold Change from Initial Inocula [6]: 31 | Fold Change from Initial Inocula [7]: 2 | Fold Change from Initial Inocula [8]: 19.8 | Fold Change from Initial Inocula [9]: 4 | Fold Change from Initial Inocula [10]: 20.6 | Fold Change from Initial Inocula [11]: 27.5

From paper PMC3578829, “A Small Molecule (Pluripotin) as a Tool for Studying Cancer Stem Cell Biology: Proof of Concept” (PLoS ONE, 2013)
